ChEMBL document CHEMBL5331121, “Preferred Conformation-Guided Discovery of Potent and Orally Active HIF Prolyl Hydroxylase 2 Inhibitors for the Treatment of Anemia” (J Med Chem, 2023)
Calls of active or inactive are those of the source. The calls are words filed in the database; no cut-off is given here.

Key:
[1] = biological target: Endothelial PAS domain-containing protein 1 (Homo sapiens) (UniProt Q99814); assay: Induction of HIF-2alpha stabilization in human Hep3B cells at 20 to 50 uM by Western blotting analysis; assay type: cell-based; details: dose 20-50 µM
Sequence of Endothelial PAS domain-containing protein 1 (Homo sapiens) (Q99814 whole entry, the tested form may be a part): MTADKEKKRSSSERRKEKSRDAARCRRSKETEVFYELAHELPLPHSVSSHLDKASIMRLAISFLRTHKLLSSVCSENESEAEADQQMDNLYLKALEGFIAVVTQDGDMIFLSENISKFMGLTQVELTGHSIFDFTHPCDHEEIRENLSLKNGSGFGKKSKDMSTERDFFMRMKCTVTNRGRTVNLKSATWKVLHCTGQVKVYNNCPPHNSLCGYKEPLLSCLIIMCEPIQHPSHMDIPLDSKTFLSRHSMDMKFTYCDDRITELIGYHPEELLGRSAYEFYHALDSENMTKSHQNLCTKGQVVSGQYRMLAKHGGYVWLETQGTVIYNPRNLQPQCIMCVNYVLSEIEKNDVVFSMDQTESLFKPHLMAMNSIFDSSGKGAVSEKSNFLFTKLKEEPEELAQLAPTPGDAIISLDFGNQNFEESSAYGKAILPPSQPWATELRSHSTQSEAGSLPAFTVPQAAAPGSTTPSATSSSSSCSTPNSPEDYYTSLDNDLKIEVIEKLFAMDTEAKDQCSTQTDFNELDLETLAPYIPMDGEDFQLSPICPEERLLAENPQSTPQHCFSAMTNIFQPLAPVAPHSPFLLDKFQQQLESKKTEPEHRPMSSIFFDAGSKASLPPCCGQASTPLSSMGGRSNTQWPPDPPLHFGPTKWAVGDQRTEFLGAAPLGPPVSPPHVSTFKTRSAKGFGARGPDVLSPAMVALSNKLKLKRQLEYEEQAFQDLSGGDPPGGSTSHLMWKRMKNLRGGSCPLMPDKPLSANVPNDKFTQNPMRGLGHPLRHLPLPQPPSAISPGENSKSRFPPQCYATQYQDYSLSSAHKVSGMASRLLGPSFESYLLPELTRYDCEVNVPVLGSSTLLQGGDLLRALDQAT

[2] = biological target: Hypoxia-inducible factor 1-alpha (Homo sapiens) (UniProt Q16665); assay: Induction of HIF-1alpha stabilization in human Hep3B cells at 20 to 50 uM by Western blotting analysis; assay type: cell-based; details: dose 20-50 µM
Sequence of Hypoxia-inducible factor 1-alpha (Homo sapiens) (Q16665 whole entry, looked up): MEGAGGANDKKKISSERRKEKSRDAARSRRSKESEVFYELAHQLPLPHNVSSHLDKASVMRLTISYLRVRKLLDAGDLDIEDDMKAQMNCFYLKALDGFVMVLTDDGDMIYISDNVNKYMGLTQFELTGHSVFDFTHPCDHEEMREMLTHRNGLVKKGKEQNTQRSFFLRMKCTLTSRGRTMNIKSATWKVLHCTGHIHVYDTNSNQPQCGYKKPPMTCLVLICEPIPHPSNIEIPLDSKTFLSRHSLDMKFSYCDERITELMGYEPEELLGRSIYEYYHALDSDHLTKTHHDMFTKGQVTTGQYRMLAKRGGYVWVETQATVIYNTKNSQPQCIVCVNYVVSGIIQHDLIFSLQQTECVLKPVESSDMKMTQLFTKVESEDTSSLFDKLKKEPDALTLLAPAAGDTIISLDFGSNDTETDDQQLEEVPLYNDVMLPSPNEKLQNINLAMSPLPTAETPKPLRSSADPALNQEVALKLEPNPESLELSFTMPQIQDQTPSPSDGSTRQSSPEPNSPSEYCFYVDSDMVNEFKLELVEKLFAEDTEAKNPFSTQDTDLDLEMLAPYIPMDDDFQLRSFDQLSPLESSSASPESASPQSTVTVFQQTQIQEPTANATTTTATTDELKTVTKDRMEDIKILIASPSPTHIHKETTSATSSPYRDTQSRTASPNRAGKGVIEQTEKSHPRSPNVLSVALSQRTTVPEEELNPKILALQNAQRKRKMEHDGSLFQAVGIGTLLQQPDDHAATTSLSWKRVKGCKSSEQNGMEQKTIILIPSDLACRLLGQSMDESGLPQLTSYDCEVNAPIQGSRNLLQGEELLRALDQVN

Erythrocyte = assay: Upregulation of reticulocytes in C57BL/6J mouse assessed as increase in RBC at 10 to 50 mg/kg, po administered once daily for 3 days; assay type: functional, organism-based; details: dose 10-50 mg/kg, time 3.0 day
Mus musculus = assay: Upregulation of reticulocytes in C57BL/6J mouse at 10 mg/kg, po administered once daily for 3 days; assay type: functional, organism-based; details: time 3.0 day
Egl nine homolog 1 = Egl nine homolog 1 (Homo sapiens, UniProt Q9GZT9); assay: Binding affinity to […] PHD2 (181 to 426 residues) (unknown origin) by fluorescence polarization assay
Sequence of Egl nine homolog 1 (Q9GZT9 whole entry, the tested form may be a part): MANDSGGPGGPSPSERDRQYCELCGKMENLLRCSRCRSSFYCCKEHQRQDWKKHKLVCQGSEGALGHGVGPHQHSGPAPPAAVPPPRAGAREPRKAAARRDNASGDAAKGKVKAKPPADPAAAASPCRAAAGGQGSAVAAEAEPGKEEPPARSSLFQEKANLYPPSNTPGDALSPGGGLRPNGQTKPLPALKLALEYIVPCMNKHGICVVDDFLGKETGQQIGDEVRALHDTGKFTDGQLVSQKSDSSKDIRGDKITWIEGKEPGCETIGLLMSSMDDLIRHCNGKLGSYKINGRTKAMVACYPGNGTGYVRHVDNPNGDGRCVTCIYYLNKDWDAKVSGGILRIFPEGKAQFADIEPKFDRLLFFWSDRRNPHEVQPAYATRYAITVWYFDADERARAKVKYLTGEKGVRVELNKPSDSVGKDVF

[3] = Upregulation of EPO mRNA level in human Hep3B cells assessed as fold increase at 20 uM incubated for 12 hrs by RT-qPCR analysis; assay type: functional, Hep 3B2
Hep 3B2 [4] = assay: Effect on VEGFA gene expression in human Hep3B cells at 5 to 20 uM incubated for 12 hrs by RT-qPCR analysis; assay type: functional, cell-based; details: dose 5-20 µM
Hep 3B2 [5] = assay: Upregulation of EPO mRNA level in human Hep3B cells incubated for 12 hrs by RT-qPCR analysis; assay type: functional, cell-based; details: dose 5-20 µM
Hep 3B2 [6] = assay: Cytotoxicity against human Hep3B cells incubated for 48 hrs by CCK-8 assay; assay type: toxicity, cell-based; details: hep 3b2, 48 h

Cc1nc(C(=O)NCC(=O)O)c(O)c2ccc(Oc3ccccc3)cc12
Activity [1]: Active | Activity [2]: Active | Activity (Erythrocyte): Dose-Dependent Effect | Activity (Mus musculus): Active

O=C(O)CNC(=O)c1ncc(C2CCN(C(=O)CNc3ccc(F)cc3)CC2)cc1O
IC50 (Egl nine homolog 1): 24.3 nM

O=C(O)CNC(=O)c1ncc(C2CCN(C(=O)CNc3ccc(Cl)c(Cl)c3)CC2)cc1O
Activity (Mus musculus): Active | IC50 (Egl nine homolog 1): 19.6 nM

Cc1ccc(NCC(=O)N2CCC(c3cnc(C(=O)NCC(=O)O)c(O)c3)CC2)cc1
IC50 (Egl nine homolog 1): 64.5 nM

O=C(O)CNC(=O)c1ncc(-c2cccc(Cl)c2)cc1O
Activity (Erythrocyte): Dose-Dependent Effect | Activity (Mus musculus): Active

O=C(O)CNC(=O)c1ncc(C2CCN(C(=O)c3ccccc3F)CC2)cc1O
IC50 (Egl nine homolog 1): 92.7 nM

O=C(O)CNC(=O)c1ncc(C2CCN(C(=O)c3ccc(OC(F)(F)F)cc3)CC2)cc1O
fold change (FC) [3]: 7 | Activity [1]: Active | Activity [2]: Active | Activity (Hep 3B2 [4]): inactive | Activity (Hep 3B2 [5]): Dose-Dependent Effect | Activity (Hep 3B2 [6]): Non-Toxic | Activity (Erythrocyte): Dose-Dependent Effect | Activity (Mus musculus): Active | IC50 (Egl nine homolog 1): 24.6 nM
